Experimental findings from patent publication US7691418B2, “Composition for inhibiting or preventing the formation of a biofilm” (Oystershell NV, priority 2004, dated 2010) are described below.

The test system of assay [1] is glycosyltransferase (GTF); dextran sucrase of Leuconostoc mesenteroides. Briefly: GTF enzyme assay: insoluble dextran formation followed by turbidity at 690 nm. The class given is biochemical. The conditions noted are these: positive controls: TRIS 2, 10, 100 mM; DJM 10 mM.
In assay [2] the test system is S. mutans biofilm. Put plainly: S. mutans biofilm formation on hydroxyl apatite discs in Modified Robbins Devices, SYTO 9 fluorescence. The class given is cell-based, Streptococcus mutans. Conditions: FIG. 12; 5 μg/ml (sub-MIC). An excerpt: A first example illustrates the influence of extracts according to the invention on the development of a S. mutans biofilm. Hereby a model system for the study of biofilm formation on discs was used. The system comprises the irrigation of a growing medium and micro-organisms on discs and to develop the formation of microbial biofilms thereon. The system permits to compare biomasses of biofilms which were and were not exposed to plant extracts according to the invention. Since teeth comprise hydroxyl apatite (HAP), discs comprising HAP (Clarkson Chromatography Products, South Williamsport, Pa., USA) were used for each experiment. […] Before starting biofilm experiments, the minimum inhibitory concentration (MIC value) was determined for each plant extract. […] Quantification of biofilm formation was done by putting the HAP discs in a microtiter plate, followed by staining the discs with a SYTO®9 solution, that stains the DNA of living bacteria as well as of dead bacteria. After an incubation period of approximately 15 minutes the microtiter plate was scanned in an automatic microtiter plate reader (Wallac 1420 Multilabel Counter (Victor^2™; Perkin Elmer Life and Analytical Sciences, Boston, Mass., USA) able to measure absorption as well as fluorescence and luminescence.

For the molecule `OC[C@H]1NC[C@H](O)[C@@H](O)[C@@H]1O` [DJM, 1-deoxynojirimycine], the “absorption of formed dextran with known GTF inhibitors” value in assay [1] was “decrease in absorption”.

Consider `NC(CO)(CO)CO` [TRIS], for which the “absorption of formed dextran with known GTF inhibitors” value in assay [1] is given as “decrease in absorption”.

`Cc1cc(O)c2c(c1)C(=O)c1cc(O)cc(O)c1C2=O` [emodin]: the “average fluorescence values compared with positive control BHIS” value in assay [2] was “significantly lower that those of the positive control BHIS”.
